Data taken from patent US7812015B2, “Prophylaxis and treatment of infectious diseases” (priority 2002, dated 2010).
Where two headings read alike, the source gives them in different places.

Tests used:
Hela epithelial cells = test system: Hela epithelial cells
Procedure: (§1) The cells were infected with rhinoviruses (strain 14, MOI 25), and the sphingomyelinase activity in cell lysates was measured. For this purpose, the cells were washed after the infection, taken up in 250 mM sodium acetate (pH 5.0), 1.3 mM EDTA and 0.05% NP40, disrupted by ultrasound treatment with a sonicator probe at low energy, and incubated with [^14C]sphingomyelin (0.5 μCi/sample, 54.5 mCi/mmol; NEN) for 30 min The in vitro enzyme assay was stopped by adding 800 μl of a 2:1 column mixture of CHCl3 and CH3OH (v/v) and 200 μl of H2O, and the liberation of [^14C]phosphorylcholine into the aqueous supernatant was measured by scintigraphy after organic extraction. […] Hela cells were again infected with rhinoviruses (strain 14) for this purpose. Ceramide was measured by a diacylglycerol (DAG) kinase assay (Grassme et al., Cell 91, 605-615, 1997). Ceramide was converted into [^32P]-ceramide by adding DAG kinase and [^32P]γATP. The phosphorylated ceramide was fractionated by thin layer chromatography and determined by scintigraphy. […] Infection of human epithelial cells by rhinoviruses was measured in flow cytometric analyses of the cytopathic effect of the viruses. […] 2.

rhinovirus strain 14 = assay: Infection of Hela epithelial cells with rhinovirus strain 14, cytotoxic effect by flow cytometry after FITC-annexin staining; format: cell-based, human; details: rhinovirus strain 14, 24 h, drug added in serum-free medium 30 min before infection
Excerpt: (§2) This was shown for Hela cells as example. […] Means±standard deviation for three experiments are shown. […] This is depicted in FIG. 2. […] Means±standard deviation of three experiments are depicted. […] 2. Infection with HIV

[1] = test system: rhinovirus strains (RV14, RV16); assay: Infection of Hela epithelial cells with various rhinovirus strains, cytotoxic effect by FITC-annexin flow cytometry; format: cell-based, human; details: RV14 and RV16, 24 h, drug added in serum-free medium 30 min before infection
Excerpt: as §2

[2] = target: T1, acid sphingomyelinase (ASM) (Homo sapiens, UniProt P17405); assay: Acid sphingomyelinase activity in lysates of Hela cells infected with rhinovirus strain 14 ([14C]sphingomyelin assay); format: cell-based; details: rhinovirus strain 14, MOI 25, preincubation with inhibitor
T1 construct: endogenous in cells; host or cells: HeLa cells infected with rhinovirus strain 14
T1 sequence (P17405 47-631): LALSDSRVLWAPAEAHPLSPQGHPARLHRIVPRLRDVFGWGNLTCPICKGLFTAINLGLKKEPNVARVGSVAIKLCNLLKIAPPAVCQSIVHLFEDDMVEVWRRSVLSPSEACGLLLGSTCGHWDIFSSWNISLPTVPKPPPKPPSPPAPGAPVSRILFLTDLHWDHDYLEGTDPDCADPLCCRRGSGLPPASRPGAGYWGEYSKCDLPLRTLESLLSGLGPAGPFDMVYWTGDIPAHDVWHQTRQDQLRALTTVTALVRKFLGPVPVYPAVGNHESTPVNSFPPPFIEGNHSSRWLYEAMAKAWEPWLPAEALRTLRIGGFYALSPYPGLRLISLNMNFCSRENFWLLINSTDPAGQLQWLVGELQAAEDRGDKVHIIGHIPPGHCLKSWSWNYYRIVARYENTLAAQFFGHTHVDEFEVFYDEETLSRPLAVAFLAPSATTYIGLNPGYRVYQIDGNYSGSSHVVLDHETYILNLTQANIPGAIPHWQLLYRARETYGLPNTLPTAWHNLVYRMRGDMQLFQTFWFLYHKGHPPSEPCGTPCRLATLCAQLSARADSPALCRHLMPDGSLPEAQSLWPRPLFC
Procedure: as §1

ceramide = assay: Ceramide liberation in rhinovirus-infected Hela cells (DAG kinase assay); format: cell-based, human; details: Hela cells infected with rhinovirus strain 14, preincubation
Excerpt: as §2

SMILES | cytotoxic effect of the drug itself on the cells (Hela epithelial cells; Hela cells) | inhibition of viral infection (cytotoxic effect of the virus) (rhinovirus strain 14) | inhibition of viral infection (cytotoxic effect of the viruses) [1] | activity of acid sphingomyelinase after preincubation of the cells [2] | liberation of ceramide after preincubation of the cells (ceramide) | cytotoxic effect of the drug itself on the cells (Hela epithelial cells)
CN(C)CCC=C1c2ccccc2CCc2ccccc21 [amitryptiline] | no cytotoxic effect | almost completely inhibits the viral infection | almost completely inhibit the viral infection | blocks the activity of acid sphingomyelinase | abolishes the liberation of ceramide | 
CN(C)CCCN1c2ccccc2CCc2ccccc21 [imipramine] |  | almost completely inhibits the viral infection | almost completely inhibit the viral infection |  |  | no cytotoxic effect
